Test results from paper PMC5247395 (EJNMMI Research, 2017).

Tests used:
[1] = n-octanol/PBS distribution coefficient (shake-flask); assay type: physicochemical; details: n-octanol/PBS pH 7.4, shake-flask
Protocol: The distribution coefficients (logD values) of the radioligands were determined by a shake-flask method using liquid-liquid extraction followed by phase separation, as previously reported (Additional file 1). In brief, the PSMA ligands were labeled at a specific activity of 5 MBq/nmol. […] The vials were vortexed vigorously for 1 min and then centrifuged for 6 min for phase separation. The concentration of radioactivity in a defined volume of each layer was measured in a γ-counter (Perkin Elmer, Wallac Wizard 1480). The distribution coefficients were expressed as the logarithm of the ratio of counts per minute (cpm) measured in the n-octanol phase to the cpm measure in the PBS phase. The values are reported as the average of at least three independent measurements (± standard deviation, SD), each performed with five replicates. Data were analyzed for significance using a one-way ANOVA test (GraphPad Prism software, version 7). A p value of <0.05 was considered as statistically significant.

[2] = system: PC-3 PIP/flu tumor-bearing mice; assay: Biodistribution in PC-3 PIP/flu tumor-bearing mice; details: i.v.; for PC-3 flu Tumor: PSMA^neg xenograft; for PC-3 PIP Tumor: PSMA^pos xenograft
Protocol: In vivo experiments were approved by the local veterinarian department and conducted in accordance with the Swiss law of animal protection. All mice were obtained from Charles River Laboratories (Sulzfeld, Germany), at the age of 5–6 weeks. Female, athymic nude Balb/c mice were subcutaneously inoculated with PC-3 PIP cells (6 × 10^6 cells in 100 μL Hank’s balanced salt solution (HBSS) with Ca^2+/Mg^2+) on the right shoulder and with PC-3 flu cells (5 × 10^6 cells in 100 μL HBSS with Ca^2+/Mg^2+) on the left shoulder 2 weeks before the performance of the experiments.
Mice were sacrificed at different time points post injection (p.i.) of the radioligands. Selected tissues and organs were collected, weighed and measured using a γ-counter. The results were decay-corrected and listed as a percentage of the injected activity per gram of tissue mass (% IA/g).

PSMA = target: T1, PSMA (Homo sapiens, UniProt Q04609); assay: Saturation binding assay on PC-3 PIP cells (PSMA affinity, KD); details: for Kd: 30 min at 4 °C, saturation binding; for Relative PSMA-binding affinity: inverse molar ratio of average KD values, ^177Lu-PSMA-617 set to 1
T1 construct: expressed in transfected cells; host or cells: PC-3 PIP cells (PSMA-positive subline of human PC-3 prostate cancer cells), provided by Prof; Martin Pomper, Johns Hopkins
Protocol: Determination of the PSMA affinity was performed by saturation binding assays using PC-3 PIP cells and different concentrations of ^nat/44Sc-, ^nat/177Lu-, ^nat/68Ga-PSMA-617, or ^nat/68Ga-PSMA-11, respectively (Additional file 1).
Determination of the KD values was performed by saturation binding assays using PSMA^pos PC-3 PIP cells. After successful radiolabeling of the PSMA ligands, a 2.5-fold molar excess of the corresponding cold metal was added and the reaction mixture was incubated for another 10 min at 95 °C. Quality control was performed again after reaction of the radioligands with the “cold” metal as described in the main manuscript.
The cells were seeded in 48-well-plates (8 x 10^5 cells in 500 uL RPMI medium/well) allowing adhesion and growth overnight at 37 °C and 5% CO2. For the entire experiment, the well-plates were kept on ice. After removal of the supernatant, the cells were washed once with ice-cold PBS pH 7.4 prior to the addition of different concentrations (1 nM-2 µM) of either ^nat/44Sc-, ^nat/177Lu-, ^nat/67/68Ga-PSMA-617 or ^nat/67/68Ga-PSMA-11 in ice-cold RPMI medium without supplements. For the determination of non-specific binding, cell samples were incubated with 2-phosphonomethyl pentanedioic acid (2-PMPA, 200 μM). The well-plates were incubated for 30 min at 4 °C. Then, the supernatants were removed and the cells washed twice with ice-cold PBS followed by addition of NaOH (1 M, 600 µL) to each well. The cell suspensions were transferred to 4 mL tubes for measurement in a γ-counter (Wallac Wizard 1480, Perkin Elmer). The KD values were determined by plotting specific-binding (total binding minus unspecific binding) against the molar concentration of the added radioligands followed by nonlinear regression analysis using GraphPad Prism 7 software.

T1 sequence (Q04609 whole entry): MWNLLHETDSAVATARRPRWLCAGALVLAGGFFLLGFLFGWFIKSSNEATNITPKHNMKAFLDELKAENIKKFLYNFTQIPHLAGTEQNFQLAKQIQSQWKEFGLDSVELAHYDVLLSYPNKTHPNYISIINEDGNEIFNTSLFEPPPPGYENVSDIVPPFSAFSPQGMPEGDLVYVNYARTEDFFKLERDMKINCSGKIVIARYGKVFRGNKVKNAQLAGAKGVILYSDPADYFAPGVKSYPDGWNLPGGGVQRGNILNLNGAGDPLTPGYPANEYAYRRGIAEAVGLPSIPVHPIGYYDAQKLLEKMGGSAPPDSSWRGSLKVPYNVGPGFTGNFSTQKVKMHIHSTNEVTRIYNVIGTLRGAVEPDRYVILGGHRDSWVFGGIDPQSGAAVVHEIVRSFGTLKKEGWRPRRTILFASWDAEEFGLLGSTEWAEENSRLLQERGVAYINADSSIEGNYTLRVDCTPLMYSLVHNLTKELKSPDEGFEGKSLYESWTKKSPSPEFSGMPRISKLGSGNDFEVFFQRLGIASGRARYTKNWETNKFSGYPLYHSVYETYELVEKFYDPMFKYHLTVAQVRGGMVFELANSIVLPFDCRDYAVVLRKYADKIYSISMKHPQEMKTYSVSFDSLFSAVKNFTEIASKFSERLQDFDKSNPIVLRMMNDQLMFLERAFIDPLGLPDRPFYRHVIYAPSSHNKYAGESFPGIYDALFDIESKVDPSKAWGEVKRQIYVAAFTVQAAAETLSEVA

Compound O=C([O-])CN1CCN(CC(=O)[O-])CCN(CC(=O)NCC2CCC(C(=O)NC(Cc3ccc4ccccc4c3)C(=O)NCCCCC(NC(=O)NC(CCC(=O)O)C(=O)O)C(=O)O)CC2)CCN(CC(=O)[O-])CC1.[44Sc+3] (stereo not shown) [^44Sc-PSMA-617] has a LogD values [1] of −4.21 ± 0.04, a Blood ([2]; 15 min p.i.) of 6.76 ± 0.28 % IA/g and a Bone ([2]; 15 min p.i.) of 2.75 ± 0.73 % IA/g. The Heart ([2]; 15 min p.i.) was 2.79 ± 0.31 % IA/g, the Intestines ([2]; 15 min p.i.) was 1.89 ± 0.13 % IA/g and the Kidneys ([2]; 15 min p.i.) was 37.7 ± 0.82 % IA/g. It also gave a Liver ([2]; 15 min p.i.) of 1.98 ± 0.19 % IA/g, a Lung ([2]; 15 min p.i.) of 5.24 ± 0.30 % IA/g and a Muscle ([2]; 15 min p.i.) of 1.37 ± 0.11 % IA/g. The Salivary glands ([2]; 15 min p.i.) was 2.27 ± 0.22 % IA/g, the Spleen ([2]; 15 min p.i.) was 3.06 ± 0.18 % IA/g and the Stomach ([2]; 15 min p.i.) was 2.25 ± 0.16 % IA/g. For the same compound, the “PC-3 flu Tumor” value ([2]; 15 min p.i.) was 2.14 ± 0.13 % IA/g, the “PC-3 PIP Tumor” value ([2]; 15 min p.i.) was 36.5 ± 7.44 % IA/g and the Blood ([2]; 30 min p.i.) was 2.52 ± 0.43 % IA/g. For the same compound, the Bone ([2]; 30 min p.i.) was 0.92 ± 0.19 % IA/g, the Heart ([2]; 30 min p.i.) was 1.31 ± 0.14 % IA/g and the Intestines ([2]; 30 min p.i.) was 1.05 ± 0.32 % IA/g. For the same compound, the Kidneys ([2]; 30 min p.i.) was 27.8 ± 3.29 % IA/g, the Liver ([2]; 30 min p.i.) was 0.80 ± 0.05 % IA/g and the Lung ([2]; 30 min p.i.) was 2.06 ± 0.25 % IA/g. For the same compound, the Muscle ([2]; 30 min p.i.) was 1.08 ± 0.20 % IA/g, the Salivary glands ([2]; 30 min p.i.) was 1.21 ± 0.14 % IA/g and the Spleen ([2]; 30 min p.i.) was 2.20 ± 0.67 % IA/g. The Stomach ([2]; 30 min p.i.) was 0.91 ± 0.17 % IA/g, the “PC-3 flu Tumor” value ([2]; 30 min p.i.) was 1.51 ± 0.18 % IA/g and the “PC-3 PIP Tumor” value ([2]; 30 min p.i.) was 44.4 ± 7.51 % IA/g. For the same compound, the Bone ([2]; 2 h p.i.) was 0.26 ± 0.13 % IA/g, the Heart ([2]; 2 h p.i.) was 0.36 ± 0.04 % IA/g and the Intestines ([2]; 2 h p.i.) was 0.15 ± 0.04 % IA/g. For the same compound, the Kidneys ([2]; 2 h p.i.) was 5.97 ± 0.90 % IA/g, the Liver ([2]; 2 h p.i.) was 0.22 ± 0.03 % IA/g and the Lung ([2]; 2 h p.i.) was 0.37 ± 0.01 % IA/g. The Muscle ([2]; 2 h p.i.) was 0.36 ± 0.11 % IA/g, the Salivary glands ([2]; 2 h p.i.) was 0.36 ± 0.07 % IA/g and the Spleen ([2]; 2 h p.i.) was 0.81 ± 0.34 % IA/g. The Stomach ([2]; 2 h p.i.) was 0.20 ± 0.05 % IA/g, the “PC-3 flu Tumor” value ([2]; 2 h p.i.) was 0.32 ± 0.16 % IA/g and the “PC-3 PIP Tumor” value ([2]; 2 h p.i.) was 46.7 ± 4.36 % IA/g. The “PC-3 flu Tumor” value ([2]; 4 h p.i.) was 0.40 ± 0.08 % IA/g, the “PC-3 PIP Tumor” value ([2]; 4 h p.i.) was 51.9 ± 4.05 % IA/g and the Blood ([2]; 6 h p.i.) was 0.27 ± 0.02 % IA/g. For the same compound, the Bone ([2]; 6 h p.i.) was 0.65 ± 0.21 % IA/g, the Heart ([2]; 6 h p.i.) was 0.63 ± 0.10 % IA/g and the Intestines ([2]; 6 h p.i.) was 0.13 ± 0.01 % IA/g. It also gave a Kidneys ([2]; 6 h p.i.) of 3.09 ± 0.58 % IA/g, a Liver ([2]; 6 h p.i.) of 0.31 ± 0.02 % IA/g and a Lung ([2]; 6 h p.i.) of 0.51 ± 0.06 % IA/g. It also gave a Muscle ([2]; 6 h p.i.) of 0.94 ± 0.08 % IA/g, a Salivary glands ([2]; 6 h p.i.) of 0.75 ± 0.17 % IA/g and a Spleen ([2]; 6 h p.i.) of 0.90 ± 0.03 % IA/g. The Stomach ([2]; 6 h p.i.) was 0.39 ± 0.07 % IA/g, the “PC-3 flu Tumor” value ([2]; 6 h p.i.) was 0.24 ± 0.02 % IA/g and the “PC-3 PIP Tumor” value ([2]; 6 h p.i.) was 52.0 ± 8.42 % IA/g. For the same compound, the Kd (PSMA) was 0.033 ± 0.012 µM and the “Relative PSMA-binding affinity” value (PSMA) was 1.2.

In the case of O=C([O-])CN1CCN(CC(=O)[O-])CCN(CC(=O)NCC2CCC(C(=O)N[C@@H](Cc3ccc4ccccc4c3)C(=O)NCCCC[C@H](NC(=O)N[C@@H](CCC(=O)O)C(=O)O)C(=O)O)CC2)CCN(CC(=O)[O-])CC1.[177Lu+3] (stereo partly shown) [^177Lu-PSMA-617], the LogD values [1] is reported as −4.18 ± 0.06, the Blood ([2]; 15 min p.i.) is reported as 7.28 ± 0.32 % IA/g and the Bone ([2]; 15 min p.i.) is reported as 2.03 ± 0.10 % IA/g. The Heart ([2]; 15 min p.i.) was 2.87 ± 0.17 % IA/g, the Intestines ([2]; 15 min p.i.) was 1.64 ± 0.12 % IA/g and the Kidneys ([2]; 15 min p.i.) was 30.8 ± 4.52 % IA/g. The Liver ([2]; 15 min p.i.) was 1.63 ± 0.27 % IA/g, the Lung ([2]; 15 min p.i.) was 4.76 ± 0.55 % IA/g and the Muscle ([2]; 15 min p.i.) was 1.78 ± 0.21 % IA/g. The Salivary glands ([2]; 15 min p.i.) was 2.11 ± 0.19 % IA/g, the Spleen ([2]; 15 min p.i.) was 2.85 ± 0.38 % IA/g and the Stomach ([2]; 15 min p.i.) was 1.70 ± 0.12 % IA/g. The “PC-3 flu Tumor” value ([2]; 15 min p.i.) was 2.49 ± 0.45 % IA/g, the “PC-3 PIP Tumor” value ([2]; 15 min p.i.) was 32.3 ± 3.54 % IA/g and the Blood ([2]; 30 min p.i.) was 3.05 ± 0.81 % IA/g. For the same compound, the Bone ([2]; 30 min p.i.) was 1.07 ± 0.27 % IA/g, the Heart ([2]; 30 min p.i.) was 1.32 ± 0.28 % IA/g and the Intestines ([2]; 30 min p.i.) was 1.13 ± 0.45 % IA/g. The Kidneys ([2]; 30 min p.i.) was 22.6 ± 1.78 % IA/g, the Liver ([2]; 30 min p.i.) was 0.90 ± 0.15 % IA/g and the Lung ([2]; 30 min p.i.) was 2.51 ± 0.44 % IA/g. The Muscle ([2]; 30 min p.i.) was 0.75 ± 0.20 % IA/g, the Salivary glands ([2]; 30 min p.i.) was 1.01 ± 0.27 % IA/g and the Spleen ([2]; 30 min p.i.) was 1.55 ± 0.05 % IA/g. For the same compound, the Stomach ([2]; 30 min p.i.) was 0.98 ± 0.35 % IA/g, the “PC-3 flu Tumor” value ([2]; 30 min p.i.) was 1.22 ± 0.32 % IA/g and the “PC-3 PIP Tumor” value ([2]; 30 min p.i.) was 47.0 ± 3.52 % IA/g. For the same compound, the Bone ([2]; 2 h p.i.) was 0.12 ± 0.07 % IA/g, the Heart ([2]; 2 h p.i.) was 0.06 ± 0.00 % IA/g and the Intestines ([2]; 2 h p.i.) was 0.14 ± 0.06 % IA/g. It also gave a Kidneys ([2]; 2 h p.i.) of 3.97 ± 0.56 % IA/g, a Liver ([2]; 2 h p.i.) of 0.13 ± 0.02 % IA/g and a Lung ([2]; 2 h p.i.) of 0.15 ± 0.03 % IA/g. The Muscle ([2]; 2 h p.i.) was 0.04 ± 0.02 % IA/g, the Salivary glands ([2]; 2 h p.i.) was 0.10 ± 0.03 % IA/g and the Spleen ([2]; 2 h p.i.) was 0.21 ± 0.03 % IA/g. For the same compound, the Stomach ([2]; 2 h p.i.) was 0.08 ± 0.02 % IA/g, the “PC-3 flu Tumor” value ([2]; 2 h p.i.) was 0.13 ± 0.01 % IA/g and the “PC-3 PIP Tumor” value ([2]; 2 h p.i.) was 45.8 ± 4.02 % IA/g. The “PC-3 flu Tumor” value ([2]; 4 h p.i.) was 0.08 ± 0.01 % IA/g, the “PC-3 PIP Tumor” value ([2]; 4 h p.i.) was 56.0 ± 8.0 % IA/g and the Blood ([2]; 6 h p.i.) was 0.02 ± 0.00 % IA/g. The Bone ([2]; 6 h p.i.) was 0.05 ± 0.01 % IA/g, the Heart ([2]; 6 h p.i.) was 0.03 ± 0.00 % IA/g and the Intestines ([2]; 6 h p.i.) was 0.03 ± 0.00 % IA/g. It also gave a Kidneys ([2]; 6 h p.i.) of 2.47 ± 0.28 % IA/g, a Liver ([2]; 6 h p.i.) of 0.09 ± 0.01 % IA/g and a Lung ([2]; 6 h p.i.) of 0.06 ± 0.02 % IA/g. The Muscle ([2]; 6 h p.i.) was 0.02 ± 0.01 % IA/g, the Salivary glands ([2]; 6 h p.i.) was 0.04 ± 0.00 % IA/g and the Spleen ([2]; 6 h p.i.) was 0.11 ± 0.01 % IA/g. The Stomach ([2]; 6 h p.i.) was 0.05 ± 0.01 % IA/g, the “PC-3 flu Tumor” value ([2]; 6 h p.i.) was 0.06 ± 0.01 % IA/g and the “PC-3 PIP Tumor” value ([2]; 6 h p.i.) was 55.4 ± 1.67 % IA/g. The Kd (PSMA) was 0.039 ± 0.023 µM and the “Relative PSMA-binding affinity” value (PSMA) was 1.0.
